Results from US20240174680A1, “CDK2 INHIBITORS AND METHODS OF USING THE SAME” (Cedilla Therapeutics, Inc., priority 2021, published 2024).

target: CDK2/Cyclin E1 (Homo sapiens, UniProt P24941); experiment: CDK2/Cyclin E1 Caliper LabChip EZ Reader mobility shift assay; type: biochemical; design: purchased Eurofins 14-475; details: read-out: Caliper Assay (CDK2/CCNE1): IC50
Outline: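 Substrate-to-product conversion of fluorescent peptide (1.5 μM final) read by capillary electrophoresis after 100 min reaction, EDTA-quenched. Enzyme (2.5 nM final) and ATP (100 μM final) were preincubated 30 min with inhibitor dilutions first. % activity vs concentration fitted four-parameter for IC50.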

Row | IC50 [nM] | SMILES
1 | 100 to 1000 | CC1(C)C[C@@H]1C(=O)N1CC2(CN(C(=O)c3cnn(Cc4ccccc4)c3)C[C@H]2C(=O)N[C@H]2C[C@@H]2c2cccc(Cl)c2)C1 [I-140A]
2 | 1000 to 10000 | C[C@@H](OCC1CCCCC1)[C@H](NC(=O)[C@H]1CN(C(=O)c2cn[nH]c2)CC12CN(C(=O)[C@H]1CC1(C)C)C2)C(=O)N1CCCCC1 [I-151B]
3 | 1000 to 10000 | CNC(=O)[C@@H](NC(=O)[C@H]1CN(C(=O)c2cnc(COC)s2)CC12CN(C(=O)[C@H]1CC1(C)C)C2)[C@@H](C)OCC1CCCCC1 [I-145B]
4 | 1000 to 10000 | CC1(C)C[C@@H]1C(=O)N1CC2(CN(C(=O)c3cnn(Cc4ccccc4)c3)C[C@H]2C(=O)NCc2ccc(C(F)(F)F)nn2)C1 [I-392]
5 | ≤ 10 | C[C@@H](OCC1CCCCC1)[C@H](NC(=O)C1CN(C(=O)c2cnn(Cc3ccccc3)c2)CC12CN(C(=O)[C@H]1CC1(C)C)C2)C(=O)N1CCC(F)(F)CC1 (stereo partly shown) [I-149 mixture]
6 | 1000 to 10000 | CC1(C)C[C@@H]1C(=O)N1CC2(CN(C(=O)c3cncs3)C[C@H]2C(=O)NC(c2cccc(C3CCOCC3)n2)C2CCCO2)C1 (stereo partly shown) [I-497]
7 | 10 to 100 | CNC(=O)[C@@H](NC(=O)[C@@H]1CN(C(=O)c2cnn(Cc3ccccc3)c2)CC12CN(C(=O)[C@H]1CC1(C)C)C2)C(C)(C)OCc1ccccc1 [I-393]
8 | > 10000 | Cc1ccc(CNC(=O)[C@@H]2CN(C(=O)c3cnn(Cc4ccncc4)c3)CC23CN(C(=O)[C@H]2CC2(C)C)C3)nn1 [I-418]
9 | 100 to 1000 | CNC(=O)[C@@H](NC(=O)[C@@H]1CN(C(=O)c2cnn(Cc3ccccc3)c2)CC12CN(C(=O)[C@H]1CC1(C)C)C2)[C@@H](C)OCc1cccnc1 [I-247]
10 | 1000 to 10000 | CC1(C)C[C@@H]1C(=O)N1CC2(CN(C(=O)c3cnn(Cc4ccccc4)c3)C[C@H]2C(=O)N[C@H]2CCCN(C(=O)C3CCCCC3)C2)C1 [I-182]
11 | ≤ 10 | C[C@@H](OCC1CCCCC1)[C@H](NC(=O)[C@@H]1CN(C(=O)c2cnn(Cc3ccccc3)c2)CC12CN(C(=O)[C@H]1CC1(C)C)C2)C(=O)N1CCC[C@H](C(=O)O)C1 [I-483]
12 | 1000 to 10000 | CNC(=O)[C@H](COCc1ccccc1)NC(=O)[C@@H]1CN(C(=O)c2cnn(Cc3ccccc3)c2)CC12CN(C(=O)C1(C(F)(F)F)CC1)C2 [I-113A, (S)-6-(1-benzyl-1H-pyrazole-4-carbonyl)-N—((S)-3-(benzyloxy)-1-(methylamino)-1-oxopropan-2-yl)-2-(1-(trifluoromethyl)cyclopropane-1-carbonyl)-2,6-diazaspiro[3.4]octane-8-carboxamide]
13 | ≤ 10 | C[C@@H](OCC1CCCCC1)[C@H](NC(=O)[C@@H]1CN(C(=O)c2cnn(Cc3ccccc3)c2)CC12CN(C(=O)[C@H]1CC1(C)C)C2)C(N)=O [I-200]
14 | ≤ 10 | C[C@@H](OCC1CCCCC1)[C@H](NC(=O)[C@@H]1CN(C(=O)c2cnn(Cc3ccccc3)c2)CC12CN(C(=O)[C@H]1CC1(C)C)C2)C(=O)N1CCC(c2cc[nH]n2)CC1 [I-443]
15 | > 10000 | CNC(=O)[C@@H](NC(=O)[C@H]1CN(C(=O)c2cnn(Cc3ccccc3)c2)CC12CN(C(=O)C1(c3ccc(C(C)(C)C)cc3)CC1)C2)[C@@H](C)OCc1ccccc1 [I-80B]
16 | > 10000 | CNC(=O)[C@@H](NC(=O)[C@@H]1CN(Cc2cnco2)CC12CN(C(=O)[C@H]1CC1(C)C)C2)[C@@H](C)OCc1ccccc1 [I-78A, (S)—N-((2S,3R)-3-(benzyloxy)-1-(methylamino)-1-oxobutan-2-yl)-2-((S)-2,2-dimethylcyclopropane-1-carbonyl)-6-(oxazol-5-ylmethyl)-2,6-diazaspiro[3.4]octane-8-carboxamide]
17 | > 10000 | CNC(=O)[C@@H](NC(=O)[C@@H]1CN(C(=O)c2cnc(C(F)(F)F)s2)CC12CN(C(=O)[C@H]1CC1(C)C)C2)[C@@H](C)OCC1CCCCC1 [I-161A]
18 | 100 to 1000 | CC(O[C@H](C)[C@@H](COC1CCC(F)(F)CC1)NC(=O)[C@@H]1CN(C(=O)c2cncs2)CC12CN(C(=O)[C@H]1CC1(F)F)C2)C1CCC(F)(F)CC1 (stereo partly shown) [I-316]
19 | > 10000 | CNC(=O)C(NC(=O)[C@@H]1CN(C(=O)c2cncs2)CC12CN(C(=O)C(C)(C)C1CC1)C2)c1cccc(C2CCOCC2)n1 (stereo partly shown) [I-338]
20 | 100 to 1000 | C[C@@H](OCc1ccccc1)[C@H](NC(=O)C1CN(C(=O)c2cnn(Cc3ccccc3)c2)CC12CN(C(=O)[C@H]1CC1(C)C)C2)C(=O)O (stereo partly drawn) [I-9, (2S,3R)-2-(6-(1-benzyl-1H-pyrazole-4-carbonyl)-2-((S)-2,2-dimethylcyclopropanecarbonyl)-2,6-diazaspiro[3.4]octane-8-carboxamido)-3-(benzyloxy)butanoic acid]
21 | > 10000 | CNC(=O)[C@@H](NC(=O)[C@@H]1CN(Cc2cnn(Cc3ccccc3)c2)CC12CN(C(=O)[C@H]1CC1(C)C)C2)[C@@H](C)OCc1ccccc1 [I-16A]
22 | 1000 to 10000 | CC1(C)C[C@@H]1C(=O)N1CC2(CN(C(=O)c3cnn(Cc4ccccc4)c3)C[C@@H]2C(=O)Nc2ccc(-c3ccccc3)cc2)C1 [I-81B]
23 | 1000 to 10000 | CNC(=O)[C@@H](NC(=O)[C@H]1CN(C(=O)c2scnc2C2CCCC2)CC12CN(C(=O)[C@H]1CC1(C)C)C2)[C@@H](C)OCC1CCCCC1 [I-224A]

Row | IC50 [nM] | SMILES
24 | 100 to 1000 | CNC(=O)[C@@H](NC(=O)[C@@H]1CN(C(=O)c2cncs2)CC12CN(C(=O)[C@H]1CC1(C)C)C2)[C@@H](C)OC1CCCCC1 [I-290]
25 | > 10000 | CNC(=O)[C@@H](NC(=O)[C@H]1CN(C(=O)c2ccccn2)CC12CN(C(=O)[C@H]1CC1(C)C)C2)[C@@H](C)OCc1ccccc1 [I-45B]
26 | ≤ 10 | CNC(=O)[C@@H](NC(=O)[C@@H]1CN(C(=O)c2cnn(Cc3ccccc3)c2)CC12CN(C(=O)[C@H]1CC1(C)C)C2)[C@@H](C)OCc1ccc(Br)cc1 [I-263]
27 | > 10000 | CNC(=O)[C@@H](NC(=O)[C@H]1CN(Cc2cnc[nH]2)CC12CN(C(=O)[C@H]1CC1(C)C)C2)[C@@H](C)OCc1ccccc1 [I-77B]
28 | ≤ 10 | COC[C@H]1CCCN(C(=O)[C@@H](NC(=O)C2CN(C(=O)c3cncs3)CC23CN(C(=O)[C@H]2CC2(C)C)C3)[C@@H](C)OCC2CCCCC2)C1 (stereo partly shown) [I-196 mixture]
29 | ≤ 10 | COC[C@H]1CCCN(C(=O)[C@@H](NC(=O)[C@@H]2CN(C(=O)c3cncs3)CC23CN(C(=O)[C@H]2CC2(C)C)C3)[C@@H](C)OCc2ccc(OC(F)(F)F)cc2)C1 [I-320]
30 | > 10000 | CC1(C)C[C@@H]1C(=O)N1CC2(CN(C(=O)c3cnn(Cc4ccccc4)c3)C[C@H]2C(=O)N2CCO[C@H](Cc3ccccc3)C2)C1 [I-255]
31 | ≤ 10 | C[C@@H](OCC1CCCCC1)[C@H](NC(=O)[C@@H]1CN(C(=O)c2cnn(Cc3ccccc3)c2)CC12CN(C(=O)[C@H]1CC1(C)C)C2)C(=O)N1CCC(F)(F)CC1 [I-149A]
32 | ≤ 10 | C[C@@H](OCC1CCCCC1)[C@H](NC(=O)[C@@H]1CN(C(=O)c2cnn(Cc3ccccc3)c2)CC12CN(C(=O)[C@H]1CC1(C)C)C2)C(=O)N1CCC(c2ncc[nH]2)CC1 [I-446]
33 | > 10000 | CNC(=O)[C@H](CO)NC(=O)C1CN(C(=O)c2cnn(Cc3ccccc3)c2)CC12CN(C(=O)[C@H]1CC1(C)C)C2 (stereo partly shown) [I-260]
34 | 100 to 1000 | CNC(=O)[C@@H](NC(=O)[C@@H]1CN(C(=O)c2cnn(Cc3ccccc3)c2)CC12CN(C(=O)CC(C)(C)C)C2)[C@@H](C)OCc1ccccc1 [I-62A]
35 | ≤ 10 | C[C@@H](OCC1CCCCC1)[C@H](NC(=O)C1CN(C(=O)c2cnn(Cc3ccccc3)c2)CC12CN(C(=O)[C@H]1CC1(C)C)C2)C(=O)N1CCCC(CO)C1 (stereo partly shown) [I-105]
36 | > 10000 | CC1(C)C[C@@H]1C(=O)N1CC2(CN(C(=O)c3cnn(Cc4ccccc4)c3)C[C@@H]2C(=O)N[C@H]2C[C@@H]2c2cccc(Cl)c2)C1 [I-140B]
37 | > 10000 | CNC(=O)[C@@H](NC(=O)[C@H]1CN(C(=O)Nc2cnn(Cc3ccccc3)c2)CC12CN(C(=O)[C@H]1CC1(C)C)C2)[C@@H](C)OCc1ccccc1 [I-48B]
38 | 10 to 100 | C[C@@H](OCC1CCCCC1)[C@H](NC(=O)[C@@H]1CN(C(=O)c2cnn(Cc3ccccc3)c2)CC12CN(C(=O)[C@H]1CC1(C)C)C2)C(=O)N1CCC[C@H]1CN [I-220]
39 | > 10000 | CC1(C)C[C@@H]1C(=O)N1CC2(CN(C(=O)c3cnn(Cc4ccccc4)c3)C[C@@H]2C(=O)N[C@H]2CCCN(C(=O)c3ccccc3)C2)C1 [I-83B]
40 | ≤ 10 | C[C@@H](OCC1CCC(F)(F)CC1)[C@H](NC(=O)[C@@H]1CN(C(=O)c2cncs2)CC12CN(C(=O)[C@H]1CC1(C)C)C2)C(=O)N1CCC2(CC1)CC2 [I-380]
41 | > 10000 | CNC(=O)[C@@H](NC(=O)[C@H]1CN(C(=O)c2n[nH]c3ccccc23)CC12CN(C(=O)[C@H]1CC1(C)C)C2)[C@@H](C)OCc1ccccc1 [I-112B]
42 | > 10000 | Cc1ccc(CNC(=O)[C@@H]2CN(C(=O)c3cnn(Cc4ccncc4F)c3)CC23CN(C(=O)[C@H]2CC2(C)C)C3)nn1 [I-35]
43 | 100 to 1000 | CNC(=O)[C@@H](NC(=O)[C@@H]1CN(C(=O)c2cnn(Cc3ccccc3)c2)CC12CN(C(=O)[C@H]1CC1(C)C)C2)C(C)(C)S(=O)(=O)Cc1ccccc1 [I-199, (S)-6-(1-benzyl-1H-pyrazole-4-carbonyl)-N—((R)-3-(benzylsulfonyl)-3-methyl-1-(methylamino)-1-oxobutan-2-yl)-2-((S)-2,2-dimethylcyclopropane-1-carbonyl)-2,6-diazaspiro[3.4]octane-8-carboxamide]
44 | > 10000 | CC1(C)C[C@@H]1C(=O)N1CC2(CN(C(=O)c3cnn(Cc4ccccc4)c3)C[C@H]2C(=O)N[C@H]2CCCN(CC3CCCCC3)C2)C1 [I-183]
45 | 100 to 1000 | CNC(=O)[C@@H](NC(=O)[C@@H]1CN(C(=O)c2cnn(Cc3ccccc3)c2)CC12CN(C(=O)[C@H]1CC1(C)C)C2)[C@@H](C)OCc1ccccc1O [I-251]
46 | > 10000 | CNC(=O)[C@@H](NC(=O)[C@@H]1CN(C(=O)c2cnn(Cc3ccccc3)c2)CC12CN(C(=O)Cc1ccccc1)C2)[C@@H](C)OCc1ccccc1 [I-25A, (S)-6-(1-benzyl-1H-pyrazole-4-carbonyl)-N-((2S,3R)-3-(benzyloxy)-1-(methylamino)-1-oxobutan-2-yl)-2-(2-phenylacetyl)-2,6-diazaspiro[3.4]octane-8-carboxamide]
